Measured values as given in publication PMC9833666, “Designing and identifying β-hairpin peptide macrocycles with antibiotic potential” (Science Advances, 2023).
Like-named read-outs stand apart in the source and are kept apart here. Bridge positions count the residues as written; N and C are the ends. Peptide text beside a SMILES is read from it.

Key:
[1] = tested on: Acinetobacter baumannii AB5075; settings: for AB5075 MIC FBS: 100% fetal bovine serum; for AB5075 MIC MH: Mueller-Hinton
[2] = tested on: Single-donor human red blood cells; assay: Hemolysis assay; type: cell-based; settings: hemolysis at 128 µg/ml
Summary of the method: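 Peptides at 300 μg/ml (SySA library) or 128 μg/ml (SySA-5 optimization library) were incubated in triplicate with washed single-donor RBCs (1 × 10^9 cells/ml) for 3 h at 37 °C. Supernatant A540 was background-normalized to PBS and expressed relative to 1% Triton X-100 (100% hemolysis).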

[3] = tested on: gram-positive and gram-negative pathogens, including colistin-resistant strains; assay: MIC against pathogen panel (tables S4 and S5, not shown); type: cell-based
Experimental: MICs were performed by a modifiedClinical and Laboratory Standards Institute) procedure. Stock peptides were diluted to 2.56 mg/ml in 50 μl of 0.01% acetic acid containing 0.2% bovine serum albumin. Peptide was then serially diluted twofold in this solution, and 10 μl of each dilution was added to a polypropylene 96-well plate (Corning, ref. no. 3879) in triplicate. Separately, E. coli W3110 or A. baumannii AB5075 was grown overnight in 5 ml of standard MH at 37°C. Cells from these cultures were diluted to a concentration of 5 × 10^5 to 6 × 10^5 cells/ml in either standard MH, MHII, RPMI, or fetal bovine serum, and 90 μl was added to each well of the 96-well plate containing diluted peptide. Plates were wrapped twice in parafilm and incubated at 37°C for 18 to 24 hours. Wells were examined by eye against wells with no bacteria for signs of growth. MICs were reported as the minimum concentration with no observable growth. In cases where triplicate samples differed, the concentration supported by the median of the three replicates was reported.
A. baumannii 17978 Lab Stock
A. baumannii 17978 R2 Lab Stock
V. cholerae C6706 Lab Stock
P. aeruginosa ATCC 27853 ATCC
K. pneumonia ATCC 1705 ATCC
S. aureus USA100 Lab Stock
Excel spreadsheet with chemically synthesized peptide properties and biochemical data.
Excel spreadsheet with all SynCH SLAY data analysis and potency score predictions

CC(C)C[C@@H]1NC(=O)[C@H](CCCNC(=N)N)NC(=O)[C@H](C(C)C)NC(=O)[C@H](CCCCN)NC(=O)[C@@H]2CSSC[C@H](NC(=O)[C@H](CCCNC(=N)N)NC(=O)[C@H](CC(C)C)NC(=O)[C@H](CCCNC(=N)N)NC(=O)[C@H](C(C)C)NC(=O)[C@H](CCCNC(=N)N)NC(=O)[C@@H](N)CSSC[C@@H](C(=O)O)NC(=O)[C@H](CCCNC(=N)N)NC1=O)C(=O)N[C@@H](CCCNC(=N)N)C(=O)N[C@@H](CCCNC(=N)N)C(=O)N[C@@H](CCCNC(=N)N)C(=O)N[C@@H](CCCNC(=N)N)C(=O)N2 [SySA-5.17] (H-CRVRLRCRRRRCKVRLRC-OH; disulfide 1-18, 7-12 (inferred); N-terminus and C-terminus assumed)
AB5075 MIC FBS ([1]; median of triplicate): 32 µg/mL
AB5075 MIC FBS ([1]; replicate 1): 32 µg/mL
AB5075 MIC FBS ([1]; replicate 2): 32 µg/mL
AB5075 MIC FBS ([1]; replicate 3): 32 µg/mL
AB5075 MIC MH ([1]; replicate 1): 4 µg/mL
AB5075 MIC MH ([1]; replicate 2): 4 µg/mL
AB5075 MIC MH ([1]; replicate 3): 4 µg/mL
fold less hemolytic (toxicity) than Protegrin-1 [2]: over 10 fold
Fold Change Hemolysis ([2]; fold change relative to SySA-5): 2.4
fold less hemolytic (toxicity) than Protegrin-1 ([2]; listed as SySA 5.17): greater than ten-fold
spectrum of activity [3]: broad-spectrum activity
